Values quoted from earlier work as cited in article PMC9881854 (bioRxiv, 2023).

System: mTOR

- binding of rapamycin by itself to mTOR: weak micromolar binder
SMILES: CO[C@H]1C[C@@H]2CC[C@@H](C)[C@@](O)(O2)C(=O)C(=O)N2CCCC[C@H]2C(=O)O[C@H]([C@H](C)C[C@@H]2CC[C@@H](O)[C@H](OC)C2)CC(=O)[C@H](C)/C=C(\C)[C@@H](O)[C@@H](OC)C(=O)[C@H](C)C[C@H](C)/C=C/C=C/C=C/1C [rapamycin]
